Results reported in ChEMBL document CHEMBL5726932, “Cyclopropanecarboxylic acid GPR120 modulators” (2018).

Target: T1, Free fatty acid receptor 4 (Homo sapiens, UniProt Q5NUL3)
T1 sequence (Q5NUL3 whole entry): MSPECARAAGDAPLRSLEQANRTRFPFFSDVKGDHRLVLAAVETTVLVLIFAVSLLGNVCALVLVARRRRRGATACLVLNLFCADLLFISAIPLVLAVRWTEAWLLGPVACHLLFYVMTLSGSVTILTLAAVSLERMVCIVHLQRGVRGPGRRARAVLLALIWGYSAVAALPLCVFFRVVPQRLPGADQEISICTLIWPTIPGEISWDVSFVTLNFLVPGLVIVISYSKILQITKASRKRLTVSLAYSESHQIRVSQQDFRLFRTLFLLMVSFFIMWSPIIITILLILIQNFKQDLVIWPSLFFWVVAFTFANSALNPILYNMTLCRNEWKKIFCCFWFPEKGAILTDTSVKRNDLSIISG
Experiment: GPR120 pERK assay: For the pERK assay, 3×10^6 cells/mL cryopreserved human and mouse cells were thawed rapidly in a 37° C. water bath and added to a T-225 flask containing 50 mL growth medium. The flasks were placed in a tissue culture incubator overnight (37° C., 5% CO2). The next day, cells were harvested with trypsin (Gibco Cat. #25300-054), resuspended in serum-containing growth medium and counted using a Cellometer and volume adjusted to a concentration of 0.5×10^6 cells/mL. Cells were plated into 384-well clear bottom tissue culture plates (BD Cat. #353962) at 50 μL/well, for a density of 25,000 cells/well using a MULTIDROP® and incubated for 16-18 hours (overnight) at 37° C. with 5% CO2. The next day, cells were washed once with 50 μL of PBS without Ca++/Mg++ (Gibco Cat. #14190-036) and serum starved in 25 μL of F-12 media without any serum or antibiotics for 2 hours at 37° C.Test compounds were 3-fold, 11-point serially diluted in DMSO in a REMP assay plate (Matrix Cat. #4307) by Tecan and 5 μL was transferred into an ECHO source plate (Labcyte Cat. #LC-0200). Cells were then stimulated with 40 nL of compound dilutions using ECHO liquid handler for 7 min at 37° C. […]

SMILES: O=C(O)C1CC1COc1ccc(-c2cccc(-c3ccccc3)c2)cc1 (configuration not stated)
- EC50: 1.7 µM

SMILES: O=C(O)C1CC1COc1ccc(-c2ccccc2-c2ccccc2)cc1 (configuration not stated)
- EC50: 6.84 µM
